Assay results reported in patent US20260294915A1, “COMBINATION THERAPY COMPRISING A MAT2A INHIBITOR AND A TOPOISOMERASE INHIBITOR, A SPLICING INHIBITOR SULFONAMIDE, OR A KIF18 INHIBITOR” (IDEAYA BIOSCIENCES, INC., priority 2023, published 2026).
Counter-ions that a name gives are not always drawn.

Columns and labels:
[1] = test system: UMUC5; experiment: 10-day proliferation (CTG), equimolar Compound A + SPLAM (Example 4); assay type: cell-based; conditions: single agent or 1:1 combo
Experimental: (§1) A 10-day proliferation assay was performed in a panel of 5 MTAP-deficient and 2 wild type non-small cell lung and bladder cancer cell lines. Optimal cell seeding for all cell lines was determined by assessing the growth over a range of seeding densities in a 384-well format to identify conditions that permitted proliferation for 10 days. Cells were then plated at the optimal seeding density and treated with 20-point, two-fold dilution series of Compound A, the splicing inhibitor sulfonamide (SPLAM), or an equimolar combination of Compound A and the SPLAM. Combinations tested included Compound A in combination with four structurally different SPLAMs. Concentrations tested for Compound A and each SPLAM alone or in combination ranged from 0.04 nM to 20,000 nM. A plate of cells was harvested at the time of compound addition to quantify the number of cells at the start of the combination (T0). For cell quantification, the harvested cells were lysed with Promega CellTiter-Glo (CTG) reagent according to the manufacturer's protocol and the chemiluminescent signal was detected on a Synergy Neo plate reader. CTG estimates cell number through detection of cellular ATP levels. Cells were incubated with the drug combinations at 37° C. with 5% CO2 for 10 days. Cells were then lysed with CTG and the chemiluminescent signal was measured.
(§2) CTG values obtained after the 10-day treatment were background subtracted and expressed as a percent of the T0 value. Data were plotted against compound concentration and fit with a four-parameter equation to generate dose response curves for each single agent and the equimolar combination. Growth ICx (gICx) values ranging from gIC30 to gIC100 were interpolated from the fitted curves. Synergistic growth inhibition was assessed by determination of Combination Index (CI) values at these various points across the titration using the mutually non-exclusive equation [Chou, 1983; Chou, 1981] shown below where A equals the gICx value of Compound A, B equals the gICx value of the SPLAM, and A+B or B+A equals the gICx value of the equimolar combination. A Combination Index value less than 1.0 was considered synergistic.

[2] = test system: NCI-H838; experiment: as above; assay type: cell-based; conditions: single agent or 1:1 combo
Experimental: as §1, §2

[3] = test system: NCI-H520; experiment: as above; assay type: cell-based; conditions: single agent or 1:1 combo
Experimental: as §1, §2

[4] = test system: SW900; experiment: as above; assay type: cell-based; conditions: single agent or 1:1 combo
Experimental: as §1, §2

[5] = test system: UMUC11; experiment: as above; assay type: cell-based; conditions: single agent or 1:1 combo
Experimental: as §1, §2

[6] = test system: RT112/84; experiment: as above; assay type: cell-based; conditions: single agent or 1:1 combo
Experimental: as §1, §2

[7] = test system: TCCSUP; experiment: as above; assay type: cell-based; conditions: single agent or 1:1 combo
Experimental: as §1, §2

[8] = test system: LMSU (RCB1062) human gastric tumor cell-derived xenograft (CDX) models; experiment: Anti-tumor activity in LMSU gastric mouse xenograft (CDX) model (Example 9); assay type: in vivo; conditions: 3 days on/4 days holiday; for Day 11 TV (mean): initial TV 185, vehicle 1018
Experimental: (§3) All mouse studies were approved by the Institutional Animal Care and Use Committee (IACUC) based on guidelines from the National Institutes of Health (NIH). Mice were maintained under pathogen-free conditions, and food and water were provided ad libitum.
(§4) The anti-tumor effect of Compound A and irinotecan hydrochloride as single-agents or in combination was assessed in the LMSU (RCB1062) human gastric tumor cell-derived xenograft (CDX) models. LMSU was expanded in HamF10 with 10% fetal bovine serum. Cells were free of mycoplasma and authenticated by STR profiling, and ten million cells in log growth phase were resuspended in Hanks Balanced Salt Solution containing 50% Matrigel and implanted subcutaneously into the flank of each recipient female Crl:NU-Foxn1nu mouse. Mice were housed in microisolator cages with corn cob bedding with additional enrichment consisting of sterile nesting material (Innovive) and Bio-huts (Bio-Serv). Water (Innovive) and diet (Teklad Global 19% Protein Extruded Diet 2919, Irradiated) were provided ad libitum. The environment was maintained on a 12-hour light cycle at approximately 68-72° F. and 40-60% relative humidity.
(§5) Tumor Volume (TV) was calculated using the following formula: TV (mm^3)=(width×width×length)/2. Tumor growth inhibition (TGI) was calculated by [(TV controlfinal−TV treatedfinal)/(TV controlfinal−TV controlinitial)×100]. TV was analyzed for statistical significance utilizing GraphPad Prism version 10.2.2. Repeated Measures 2-Way ANOVA with Dunnet's Multiple Comparisons was utilized, and P-values were derived from data collected on the date of Vehicle group termination and were considered statistically significant if less than 0.05.
Mean tumor volume at dosing start was approximately 185 mm^3, with seven mice randomized to each treatment group. Mice were dosed orally, once per day, with Vehicle, Compound A at 10 mg/kg, or dosed for 3 consecutive days followed by 4 days holiday by intraperitoneal (IP) injection of Compound B at 5 mg/kg or 10 mg/kg, or combination of Compound A and Compound B. The vehicle group was a combination of Vehicle A (for Compound A, 0.5% 400 cps methylcellulose with 0.5% Tween-80 in sterile water) and Vehicle B (for irinotecan hydrochloride, Saline).

[9] = test system: RT112/84 human bladder tumor cell-derived xenograft (CDX) model; experiment: Anti-tumor activity in RT112/84 mouse xenograft (CDX) model (Example 7); assay type: in vivo
Experimental: as §3
The anti-tumor effect of Compound A and irinotecan hydrochloride as single-agents or in combination was assessed in the RT112/84 human bladder tumor cell-derived xenograft (CDX) model. Cells were expanded in RPMI-1640 (Gibco, Catalog Number 11875093) with 10% fetal bovine serum. These cells were free of mycoplasma and authenticated by STR profiling. Five million cells in log growth phase were resuspended in Hanks Balanced Salt Solution containing 50% Matrigel and implanted subcutaneously into the flank of each recipient female Crl:NU-Foxnlnu mouse. Mice were housed in microisolator cages with corn cob bedding with additional enrichment consisting of sterile nesting material (Innovive) and Bio-huts (Bio-Serv). Water (Innovive) and diet (Teklad Global 19% Protein Extruded Diet 2919, Irradiated) were provided ad libitum. The environment was maintained on a 12-hour light cycle at approximately 68-72° F. and 40-60% relative humidity.
as §5, with “10.0.3.” for “10.2.2.”, “Tukey's” for “Dunnet's”, “Day 14 (date” for “the date”, “termination)” for “termination”, “0.05. Tumor regression was calculated by using the percent change in tumor volume from the final tumor volume measurement from Day 73 when compared to the initial tumor volume from Day 1. Tumor regression was defined as reduced TV on Day 73 compared to Day 1. Tumor regression rate was defined as the percentage of animals per group with tumor regression.” for “0.05.”
Mean tumor volume at dosing start was approximately 249 mm^3, with ten mice randomized to each treatment group. Mice were dosed orally, once per day, with Vehicle, Compound A at 10 mg/kg, or dosed for 3 consecutive days followed by 4 days holiday by intraperitoneal (IP) injection of Compound B at 5 mg/kg, or combination of Compound A and Compound B. The vehicle group was a combination of Vehicle A (for Compound A, 0.5% 400 cps methylcellulose with 0.5% Tween-80 in sterile water) and Vehicle B (for irinotecan hydrochloride, Saline).

[10] = test system: MKN45 (RCB1001) human gastric tumor cell-derived xenograft (CDX) model; experiment: Anti-tumor activity in MKN45 gastric mouse xenograft (CDX) model (Example 8); assay type: in vivo; conditions: 3 days on/4 days holiday
Experimental: as §3
as §4, with “MKN45 (RCB1001)” for “LMSU (RCB1062)”, “model. MKN45” for “models. LMSU”, “RPMI1640” for “HamF10”
as §5
Mean tumor volume at dosing start was approximately 190 mm^3, with six mice randomized to each treatment group. Mice were dosed orally, once per day, with Vehicle, Compound A at 10 mg/kg, or dosed for 3 consecutive days followed by 4 days holiday by intraperitoneal (IP) injection of Compound B at 5 mg/kg or 10 mg/kg, or combination of Compound A and Compound B. The vehicle group was a combination of Vehicle A (for Compound A, 0.5% 400 cps methylcellulose with 0.5% Tween-80 in sterile water) and Vehicle B (for irinotecan hydrochloride, Saline).

[11] = irinotecan hydrochloride 5 mg/kg IP
[12] = irinotecan hydrochloride 10 mg/kg IP
[13] = irinotecan hydrochloride 5 mg/kg IP, 3 days on/4 days holiday

O=C(NS(=O)(=O)c1ccc(Br)s1)c1ccc(Cl)cc1Cl [Tasisulam, N-((5-bromothiophen-2-yl)sulfonyl)-2,4-dichlorobenzamide]
gIC30 [1]: 16.121 µM | gIC40 [1]: 16.834 µM | gIC60 [1]: 18.053 µM | gIC70 [1]: 18.592 µM | gIC100 [1]: 20 µM | IC80 ([1]; 14400 min, read-out: gIC80): 19.1 µM | IC90 ([1]; 14400 min, read-out: gIC90): 19.6 µM | IC50 ([1]; read-out: gIC50): 17.5 µM | IC50 ([2]; Homo sapiens, NCI-H838, read-out: gIC50): 4.93 µM | gIC30 [2]: 7.419 µM | gIC40 [2]: 4.551 µM | gIC60 [2]: 5.372 µM | gIC70 [2]: 5.923 µM | gIC100 [2]: 20 µM | IC80 ([2]; 14400 min, read-out: gIC80): 6.69 µM | IC90 ([2]; 14400 min, read-out: gIC90): 7.97 µM | IC50 ([3]; Homo sapiens, NCI-H520, read-out: gIC50): 11.2 µM | gIC30 [3]: 9.551 µM | gIC40 [3]: 10.354 µM | gIC60 [3]: 12.274 µM | gIC70 [3]: 13.716 µM | gIC100 [3]: 20 µM | IC80 ([3]; 14400 min, read-out: gIC80): 16.4 µM | IC90 ([3]; 14400 min, read-out: gIC90): 12 µM | IC50 ([4]; Homo sapiens, SW900, read-out: gIC50): 20 µM | gIC30 [4]: 20 µM | gIC40 [4]: 20 µM | gIC60 [4]: 20 µM | gIC70 [4]: 20 µM | gIC100 [4]: 20 µM | IC80 ([4]; 14400 min, read-out: gIC80): 20 µM | IC90 ([4]; 14400 min, read-out: gIC90): 20 µM | gIC30 [5]: 17.77 µM | gIC40 [5]: 18.358 µM | gIC60 [5]: 19.349 µM | gIC70 [5]: 19.781 µM | gIC100 [5]: 20 µM | IC80 ([5]; 14400 min, read-out: gIC80): 20 µM | IC90 ([5]; 14400 min, read-out: gIC90): 20 µM | IC50 ([5]; read-out: gIC50): 18.9 µM | IC50 ([6]; Homo sapiens, RT112/84, read-out: gIC50): 20 µM | gIC30 [6]: 20 µM | gIC40 [6]: 20 µM | gIC60 [6]: 20 µM | gIC70 [6]: 20 µM | gIC100 [6]: 20 µM | IC80 ([6]; 14400 min, read-out: gIC80): 20 µM | IC90 ([6]; 14400 min, read-out: gIC90): 20 µM | IC50 ([7]; Homo sapiens, TCC-SUP, read-out: gIC50): 20 µM | gIC30 [7]: 20 µM | gIC40 [7]: 20 µM | gIC60 [7]: 20 µM | gIC70 [7]: 20 µM | gIC100 [7]: 20 µM | IC80 ([7]; 14400 min, read-out: gIC80): 20 µM | IC90 ([7]; 14400 min, read-out: gIC90): 20 µM

CCc1c2c(nc3ccc(OC(=O)N4CCC(N5CCCCC5)CC4)cc13)-c1cc3c(c(=O)n1C2)COC(=O)[C@]3(O)CC [irinotecan hydrochloride]
Day 11 TGI [8, 11]: 42% | Tumor Regression Rate on Day 11 [8, 11]: 0% | Day 11 TV (mean) [8, 11]: 671 mm^3 | Day 11 TGI [8, 12]: 80% | Tumor Regression Rate on Day 11 [8, 12]: 14% | Day 11 TV (mean) [8, 12]: 353 mm^3 | TGI ([9]; Compound A 10 mg/kg oral once per day, irinotecan 5 mg/kg IP 3 days on/4 days off): 83% | response rate (mice with tumor regressions) ([9]; day 73, Compound A 10 mg/kg oral, irinotecan 5 mg/kg IP): 30% | Day 14 TGI [9, 13]: 83% | Tumor Regression Rate on Day 73 [9, 13]: 30% | Day 14 TV (mean) ([9]; irinotecan hydrochloride 5 mg/kg IP, 3 days on/4 days holiday, initial TV 249, vehicle 1069): 387 mm^3 | Day 25 TGI [10, 11]: 49% | Tumor Regression Rate on Day 25 [10, 11]: 0% | Day 25 TV (mean) ([10]; irinotecan hydrochloride 5 mg/kg IP, initial TV 190, vehicle 1396): 807 mm^3 | Day 25 TGI [10, 12]: 85% | Tumor Regression Rate on Day 25 [10, 12]: 17% | Day 25 TV (mean) ([10]; irinotecan hydrochloride 10 mg/kg IP, initial TV 192, vehicle 1396): 369 mm^3
